Source: patent US20240059703A1 (AMGEN INC., priority 2021, published 2024)

Tests used:
[1] = system: phosphorylation of extracellular signal-regulated kinase (ERK); settings: preclinical studies; cited from earlier work
[2] = system: A549 (human lung carcinoma) cells; test: Cell Viability Assay (CellTiter-Glo), A549; assay type: cell-based; settings: Homo sapiens, A549, 72 h
Method in brief: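 Seeding at 1.67E+04 cells/mL is followed by overnight attachment at 37° C., 5% CO2. Serially diluted compound is added for 72 h. Viability is read by CellTiter-Glo luminescence, scaled to DMSO and fitted (4-parameter logistic) to give IC50.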

[3] = system: MIA PaCa-2 (human pancreatic carcinoma) cells; test: Cell Viability Assay (CellTiter-Glo), MIA PaCa-2; assay type: cell-based; settings: Homo sapiens, MIA PaCa-2, 72 h
Method: Serially-diluted compound or DMSO was added to the cells, and plates were incubated at 37° C., 5% CO2 for 72 h. Cell viability was measured using a CellTiter-Glo® Luminescent Cell Viability Assay kit (Promega) according to the manufacturer's protocol. The luminescence signal of treated samples was normalized to DMSO control, and data were analyzed using a 4-parameter logistic model to calculate IC50 values.

KRAS G12C [4] = molecular target: T1, KRAS G12C (Homo sapiens (Human), UniProt P01116, C118A/G12C); test: 20 h coupled exchange assay; assay type: biochemical; settings: value marked ** in the Avg 2 h column; footnote not given, taken as 20 h pre-incubation
T1 sequence (P01116 other isoform, or with tags, fused parts or gaps G12C/C118A): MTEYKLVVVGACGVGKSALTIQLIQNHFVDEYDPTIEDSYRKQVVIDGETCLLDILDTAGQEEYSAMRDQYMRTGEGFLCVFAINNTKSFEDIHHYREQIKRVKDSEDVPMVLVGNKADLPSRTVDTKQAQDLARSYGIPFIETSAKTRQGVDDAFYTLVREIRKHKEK
Method: (§1) The term “2 h coupled exchange assay” or “20 h coupled exchange assay” as used herein refers to the assay described in the Section entitled “BIOLOGICAL EVALUATION.”

KRAS G12C [5] = molecular target: T1, KRAS G12C; test: 2 h coupled exchange assay; assay type: biochemical; settings: Avg 2 h Coupled exchange IC50, 2 h compound pre-incubation
Method: as §1

Structure (SMILES)	IC50 [2]	IC50 [3]	IC50 (KRAS G12C [4])	IC50 (KRAS G12C [5])	inhibition of phosphorylation of extracellular signal-regulated kinase (ERK) [1]
C=CC(=O)N1CCN(c2nc(=O)n(-c3c(C)ccnc3C(C)C)c3nc(-c4c(O)cccc4F)c(F)cc23)[C@@H](C)C1 [AMG 510]					inhibited nearly all detectable phosphorylation
C=CC(=O)N1CC2(CCN(c3nc(-c4c(C)ccc5[nH]ncc45)c4ncn(C)c4n3)C2)C1 [Example 1-20, 1-(6-(9-methyl-6-(5-methyl-1H-indazol-4-yl)-9H-purin-2-yl)-2,6-diazaspiro[3.4]octan-2-yl)-2-propen-1-one]	> 5000 nM	> 5000 nM	4650 nM		
C=CC(=O)N1CC2(CCN(c3cc(-c4c(C)ccc5[nH]ncc45)c4occ(C)c4n3)C2)C1 [Example 3, 1-(6-(3-Methyl-7-(5-methyl-1H-indazol-4-yl)furo[3,2-b]pyridin-5-yl)-2,6-diazaspiro[3.4]octan-2-yl)prop-2-en-1-one]			1380 nM		
C=CC(=O)N1CC2(CCN(c3nc4c(c(-c5cc(C(F)F)ccc5Cl)c3C#N)CCN(c3scnc3C)C4)C2)C1 [Example 23-61, 4-(2-chloro-5-(difluoromethyl)phenyl)-7-(4-methyl-1,3-thiazol-5-yl)-2-(2-(2-propenoyl)-2,6-diazaspiro[3.4]octan-6-yl)-5,6,7,8-tetrahydro-1,7-naphthyridine-3-carbonitrile]	12400 nM	1910 nM		103 nM	
C=CC(=O)N1CC2(CCN(c3nc4cc(OC)ccc4c(-c4c(C)ccc5[nH]ncc45)c3F)C2)C1 [Example 27-1, 1-(6-(3-fluoro-7-methoxy-4-(5-methyl-1H-indazol-4-yl)-2-quinolinyl)-2,6-diazaspiro[3.4]octan-2-yl)-2-propen-1-one]	> 5000 nM	996 nM		134 nM	
C=CC(=O)N1CC2(CCN(c3nc4ccccc4c(-c4c(C)ccc5[nH]ncc45)c3Cl)C2)C1 [Example 27-2, 1-(6-(3-chloro-4-(5-methyl-1H-indazol-4-yl)-2-quinolinyl)-2,6-diazaspiro[3.4]octan-2-yl)-2-propen-1-one]	> 5000 nM	2640 nM		121 nM	
C=CC(=O)N1CC2(CCN(c3cc4c(c(-c5c(C)ccc6[nH]ncc56)c3Cl)OCCC4)C2)C1 [Example 31-1, 1-(6-(7-chloro-8-(5-methyl-1H-indazol-4-yl)-3,4-dihydro-2H-chromen-6-yl)-2,6-diazaspiro[3.4]octan-2-yl)-2-propen-1-one]	> 5000 nM	34 nM		76 nM	
C=CC(=O)N1CC2(CCN(c3nc4c(c(-c5ccccc5F)c3C#N)CCN(c3nccn3C)C4)C2)C1 [Example 34-1, 4-(2-fluorophenyl)-7-(1-methyl-1H-imidazol-2-yl)-2-(2-(2-propenoyl)-2,6-diazaspiro[3.4]octan-6-yl)-5,6,7,8-tetrahydro-1,7-naphthyridine-3-carbonitrile]	14100 nM	3510 nM		814 nM	

Further lines, with some results ahead:

IC50 [2]	IC50 [3]	IC50 (KRAS G12C [4])	IC50 (KRAS G12C [5])	Structure (SMILES)	inhibition of phosphorylation of extracellular signal-regulated kinase (ERK) [1]
> 5000 nM	> 5000 nM		67 nM	C=CC(=O)N1CC2(CCN(c3nc4c(c(-c5cccc(O)c5F)c3C#N)CCN(c3scnc3C)C4)C2)C1 [Example 35-1, 4-(2-fluoro-3-hydroxyphenyl)-7-(4-methyl-1,3-thiazol-5-yl)-2-(2-(2-propenoyl)-2,6-diazaspiro[3.4]octan-6-yl)-5,6,7,8-tetrahydro-1,7-naphthyridine-3-carbonitrile]	
14600 nM	335 nM		589 nM	C=CC(=O)N1CC2(CCN(c3nc4c(c(-c5c(C)ccc6cnn(C)c56)c3C)CCN(C3(C)COC3)C4)C2)C1 [Example 36-1, 1-(6-(4-(1,6-dimethyl-1H-indazol-7-yl)-3-methyl-7-(3-methyl-3-oxetanyl)-5,6,7,8-tetrahydro-1,7-naphthyridin-2-yl)-2,6-diazaspiro[3.4]octan-2-yl)-2-propen-1-one]	
> 25000 nM	96 nM		214 nM	C=CC(=O)N1CC2(CCN(c3nc4c(c(-c5c(C)ccc(OC)c5N)c3C#N)COC(C)(C)C4)C2)C1 [Example 37-1, 4-(2-amino-3-methoxy-6-methylphenyl)-7,7-dimethyl-2-(2-(2-propenoyl)-2,6-diazaspiro[3.4]octan-6-yl)-7,8-dihydro-5H-pyrano[4,3-b]pyridine-3-carbonitrile]	
12700 nM	348 nM		407 nM	C=CC(=O)N1CC2(CCN(c3nc4c(c(-c5cc(N)cc6ccccc56)c3C#N)COC(C)(C)C4)C2)C1 [Example 38-1, 4-(3-amino-1-naphthalenyl)-7,7-dimethyl-2-(2-(2-propenoyl)-2,6-diazaspiro[3.4]octan-6-yl)-7,8-dihydro-5H-pyrano[4,3-b]pyridine-3-carbonitrile]	
